Tests used:
[1] = cited from earlier work
[2] = tested on: NCI-H460 xenografts; experiment: NCI-H460 xenograft study in nude mice; type: in vivo; conditions: oral, (d×5)2 schedule, deaths/animals
Protocol: Protocol of Comparison Study of 5(RS)-(2′-hydroxyethoxy)-20(S)-camptothecin and 5(S)-(2′-hydroxyethoxy)-20(S)-camptothecin Against NCl-H460 Xenograft in Nude Mice:
Ti is the mean tumor volume.
Percentage tumor growth inhibition was calculated using the formula: Percentage Tumor growth inhibition=100−% T/C.
The other parameter observed was mortality.

[3] = tested on: Human bone marrow mononuclear cells; experiment: Human bone marrow assay (CFU-GM colony inhibition); type: cell-based; conditions: relative to 5(R) diastereoisomer
Protocol: Protocol for Human Bone Marrow Assay:
Methocult™ GF (Cat No: H4534, Poietics, Biowhittakar, USA) medium comprising Methycellulose in Iscove's MDM, Fetal bovine serum, Bovine serum albumin, 2-Mercaptoethanol, L-Glutamine, rhStem cell factor, rhGM-CSF and rhIL-3 was used for the assay. Human bone marrow mononuclear cells (Cat No. 2M-125C, Poietics, Biowhittakar, USA) were mixed with Methocult GF and the cell density was adjusted to 3×10^5 cells/ml. From this preparation, 500 μL aliquots were made and 2.5 μL of 20× drug solution or vehicle was added to each aliquot and mixed thoroughly. 100 μL of clonogenic medium was plated into each well and the plates were allowed to gel at 4° C. for 15 minutes. Plates were incubated at 37° C. in a fully humidified atmosphere of 5% CO2 in an incubator for 14 days. CFU-GM colonies were counted under an inverted microscope as aggregates of 50 cells or more. The percentage colony inhibition was calculated using the following formula: 100−[(number of colonies in drug treated wells/Number of colonies in control wells)×100].
The in vitro potency of the two diastereomers against cancer cell lines had been compared with their in vitro toxicity in healthy cells.

[4] = tested on: Saos-2 cells over expressing non-functional BCRP mut#10; type: cell-based, human
Protocol: (§1) Protocol for Breast Cancer Resistance Protein (BCRP) Assay:
(§2) The anticancer effect of 5(S)-(2′-hydroxyethoxy)-20(S)-camptothecin & 5(R)-(2′-hydroxyethoxy)-20(S)-camptothecin were evaluated versus the racemate 5(RS)-(2′-hydroxyethoxy)-20(S)-camptothecin on Saos-2 cells over expressing functional BCRP#4 and non-functional BCRP mut#10. The human osteosarcoma cell line, Saos-2, was obtained from ATCC (American Type Culture Collection, Cat#HTB-85, Manassas, Va.) and were maintained in DMEM containing 10% fetal bovine serum, 1% penicillin/streptomycin, and 2 mM glutamine. Saos-2 cells were transfected with either BCRP#4 to over express functional BCRP or BCRP#10 to over express non-functional BCRP transporter. The cells were plated in 96-well plates at a density of 1000 cells per each well in a 0.1 ml of medium and allowed to attach overnight. The next morning the medium was gently aspirated and serial dilutions of the compounds to be tested were added. The cells were incubated at 37° C. in a 5% CO2 incubator. […] The amount of the fluorescent dye produced was measured on a Cytofluor® 2300(Millipore, Bedford, Mass.) using an excitation wavelength of 530 nm and emission wavelength of 590 nm. The relative fluorescence units obtained were used to calculate the percentage growth at each concentration in relation to the untreated control values. […]

[5] = tested on: Saos-2 cells over expressing functional BCRP#4; type: cell-based, human
Protocol: as §1, §2

Row | SMILES | water solubility [1] | Mortality ([2]; 2 mg/kg) | Mortality ([2]; 4 mg/kg) | safety margin (GI90/GI50) compared with that of the 5(R) diastereoisomer [3] | fold more cytotoxic than 5(R)-(2′-hydroxyethoxy)-20(S)-camptothecin [4] [fold] | fold more cytotoxic than 5(R)-(2′-hydroxyethoxy)-20(S)-camptothecin [5] [fold]
1 | CC[C@@]1(O)C(=O)OCc2c1cc1n(c2=O)Cc2cc3ccccc3nc2-1 [camptothecin, Camptothecin] | poorly water soluble |  |  |  |  | 
2 | CC[C@@]1(O)C(=O)OCc2c1cc1n(c2=O)C(OCCO)c2cc3ccccc3nc2-1 (mixture of isomers) [4(S)-Ethyl-4-hydroxy-12(RS)-(2-hydroxyethoxy)-1,12-dihydro-4H-2-oxa-6,12a-diaza-dibenzo[b,h]fluorine-3,13-dione, reference compound] |  | 0/5 | 0/5 |  |  | 
3 | CC[C@@]1(O)C(=O)OCc2c1cc1n(c2=O)[C@@H](OCCO)c2cc3ccccc3nc2-1 [4-(S)-Ethyl-4-hydroxy-12(S)-(2-hydroxyethoxy)-1,12-dihydro-4H-2-oxa-6,12a-diazadibenzo[b,h] fluorene-3,13-dione] |  | 0/5 | 0/5 | over twice | ~6 | > 2.5

Source: patent publication US7601733B2, “5(S)-(2′-hydroxyethoxy)-20(S)-camptothecin and its preparation and use for the treatment of cancer” (priority 2006, dated 2009)
